According to ChEMBL document CHEMBL4043190 (Bioorg Med Chem Lett, 2017):

Key:
[1] = Ratio of unbound drug concentration in IL-23/IL-1beta induced C57BL/6J mouse plasma at 30 mg/kg, po to EC50 for TYK2 (unknown origin) assessed as inhibition of IL-23 induced STAT3 phosphorylation
[2] = Permeability from apical side to basolateral side in MDCK cells; assay type: ADME, cell-based, Canis lupus familiaris; settings: dog, read-out: permeability
[3] = Clearance in rat; assay type: ADME; settings: in vivo
[4] = target: T1, Non-receptor tyrosine-protein kinase TYK2 (Homo sapiens, UniProt P29597); assay: Inhibition of TYK2 (unknown origin) by biochemical assay
[5] = system: Mus musculus; assay: Antiinflammatory activity in IMQ-induced BALB/c mouse psoriasis model assessed as reduction in ear thickness at 70 mg/kg, po bid for 5 days meausred on day 6; assay type: functional; set-up: scale not given: the % may be the effect or the level left
[6] = system: Mus musculus; assay: Antiinflammatory activity in IMQ-induced BALB/c mouse model assessed as reduction in serum IL-17F production at 70 mg/kg, po bid for 5 days; assay type: functional; set-up: scale not given: the % may be the effect or the level left
[7] = system: Plasma; assay: Unbound drug concentration in IL-23/IL-1beta induced C57BL/6J mouse plasma at 30 mg/kg, po preincubated for 30 mins followed by cytokine addition measured after 3.5 hrs post dose; assay type: ADME, organism-based; settings: in vivo
[8] = system: Mus musculus; assay: Toxicity in IMQ-induced BALB/c mouse model assessed as reduction in platelet levels at 30 mg/kg, po bid for 5 days; assay type: organism-based; set-up: scale not given: the % may be the effect or the level left; settings: in vivo, 120 h
[9] = target: T2, Tyrosine-protein kinase JAK2 (Homo sapiens, UniProt O60674); assay: Inhibition of JAK2 (unknown origin) by biochemical assay
[10] = target: T3, Cyclin-dependent kinase 2 (Homo sapiens, UniProt P24941); assay: Inhibition of CDK2 (unknown origin)
[11] = Protein binding in human plasma; assay type: ADME, cell-free; settings: read-out: PPB (converted)
[12] = system: Mus musculus; assay: Anti-inflammatory activity in IL-23/IL-1beta induced C57BL/6J mouse assessed as inhibition of IL-17F level in serum at 30 mg/kg, po pretreated for 30 mins followed by cytokine addition measured after 3 hrs by ELISA relative to control; assay type: functional
[13] = target: T2, Tyrosine-protein kinase JAK2; assay: Inhibition of JAK2 (unknown origin) assessed as reduction in EPO-mediated STAT5 phosphorylation by cell based readout assay
[14] = system: Mus musculus; assay: Antiinflammatory activity in IMQ-induced BALB/c mouse model assessed as reduction in serum IL-17F production at 30 mg/kg, po bid for 5 days; assay type: functional; set-up: scale not given: the % may be the effect or the level left
[15] = target: T1, Non-receptor tyrosine-protein kinase TYK2; assay: Inhibition of TYK2 (unknown origin) assessed as reduction in IL-23 induced STAT3 phosphorylation by cell based ELISA
[16] = system: Plasma; assay: Unbound drug concentration in IL-23/IL-1beta induced C57BL/6J mouse plasma at 100 mg/kg, po preincubated for 30 mins followed by cytokine addition measured after 3.5 hrs post dose; assay type: ADME, organism-based; settings: in vivo
[17] = system: Mus musculus; assay: Toxicity in IMQ-induced BALB/c mouse model assessed as reduction in platelet levels at 100 mg/kg, po bid for 5 days; assay type: organism-based; set-up: scale not given: the % may be the effect or the level left; settings: in vivo, 120 h
[18] = system: Mus musculus; assay: Antiinflammatory activity in IMQ-induced BALB/c mouse psoriasis model assessed as reduction in ear thickness at 30 mg/kg, po bid for 5 days meausred on day 6; assay type: functional; set-up: scale not given: the % may be the effect or the level left
[19] = Protein binding in rat plasma; assay type: ADME, cell-free; settings: read-out: PPB (converted)
[20] = Ratio of unbound drug concentration in IL-23/IL-1beta induced C57BL/6J mouse plasma at 70 mg/kg, po to EC50 for TYK2 (unknown origin) assessed as inhibition of IL-23 induced STAT3 phosphorylation
[21] = Clearance in dog; assay type: ADME, Canis lupus familiaris; settings: in vivo
[22] = system: Plasma; assay: Unbound drug concentration in IL-23/IL-1beta induced C57BL/6J mouse plasma at 70 mg/kg, po preincubated for 30 mins followed by cytokine addition measured after 3.5 hrs post dose; assay type: ADME, organism-based; settings: in vivo
[23] = system: Mus musculus; assay: Toxicity in IMQ-induced BALB/c mouse model assessed as reduction in platelet levels at 70 mg/kg, po bid for 5 days; assay type: organism-based; set-up: scale not given: the % may be the effect or the level left; settings: in vivo, 120 h
[24] = target: T3, Cyclin-dependent kinase 2; settings: 70 nM
[25] = Ratio of unbound drug concentration in IL-23/IL-1beta induced C57BL/6J mouse plasma at 70 mg/kg, po to EC50 for JAK2 (unknown origin) assessed as inhibition of EPO-mediated STAT5 phosphorylation; assay type: organism-based; settings: in vivo
[26] = Protein binding in mouse plasma; assay type: ADME, cell-free; settings: read-out: PPB (converted)
[27] = target: T4, Cyclin-dependent kinase 9 (Homo sapiens, UniProt P50750); assay: Inhibition of CDK9 (unknown origin)
[28] = system: Mus musculus; assay: Anti-inflammatory activity in IL-23/IL-1beta induced C57BL/6J mouse assessed as inhibition of IL-17F level in serum at 100 mg/kg, po pretreated for 30 mins followed by cytokine addition measured after 3 hrs by ELISA relative to control; assay type: functional
[29] = system: Mus musculus; assay: Anti-inflammatory activity in IL-23/IL-1beta induced C57BL/6J mouse assessed as inhibition of IL-17F level in serum pretreated po for 30 mins followed by cytokine addition measured after 3 hrs by ELISA; assay type: functional, organism-based
[30] = system: Mus musculus; assay: Antiinflammatory activity in IMQ-induced BALB/c mouse psoriasis model assessed as reduction in ear thickness at 100 mg/kg, po bid for 5 days meausred on day 6; assay type: functional; set-up: scale not given: the % may be the effect or the level left
[31] = Ratio of unbound drug concentration in IL-23/IL-1beta induced C57BL/6J mouse plasma at 30 mg/kg, po to EC50 for JAK2 (unknown origin) assessed as inhibition of EPO-mediated STAT5 phosphorylation; assay type: organism-based; settings: in vivo
[32] = Efflux ratio of permeability from basolateral to apical over apical to basolateral side in MDCK cells; assay type: ADME, cell-based, Canis lupus familiaris; settings: dog
[33] = system: Mus musculus; assay: Anti-inflammatory activity in IL-23/IL-1beta induced C57BL/6J mouse assessed as inhibition of IL-17F level in serum at 70 mg/kg, po pretreated for 30 mins followed by cytokine addition measured after 3 hrs by ELISA relative to control; assay type: functional
[34] = species on record: Homo sapiens; assay: Selectivity ratio of EC50 for JAK2 (unknown origin) assessed as EPO-induced STAT5 phosphorylation to EC50 for TYK2 (unknown origin) assessed as IL-23-induced STAT3 phosphorylation
[35] = Ratio of unbound drug concentration in IL-23/IL-1beta induced C57BL/6J mouse plasma at 100 mg/kg, po to EC50 for TYK2 (unknown origin) assessed as inhibition of IL-23 induced STAT3 phosphorylation
[36] = system: Mus musculus; assay: Antiinflammatory activity in IMQ-induced BALB/c mouse model assessed as reduction in serum IL-17F production at 100 mg/kg, po bid for 5 days; assay type: functional; set-up: scale not given: the % may be the effect or the level left
[37] = target: Substance-P receptor (Homo sapiens) (UniProt P25103); assay: Inhibition of NK1 (unknown origin) at 10 uM relative to control
[38] = Ratio of unbound drug concentration in IL-23/IL-1beta induced C57BL/6J mouse plasma at 100 mg/kg, po to EC50 for JAK2 (unknown origin) assessed as inhibition of EPO-mediated STAT5 phosphorylation; assay type: organism-based; settings: in vivo
[39] = system: Mus musculus; assay: Antiinflammatory activity in IMQ-induced BALB/c mouse model assessed as reduction in serum IL-17F production administered po bid for 5 days; assay type: functional, organism-based
[40] = target: T4, Cyclin-dependent kinase 9; settings: 70 nM

T1 sequence (P29597 whole entry): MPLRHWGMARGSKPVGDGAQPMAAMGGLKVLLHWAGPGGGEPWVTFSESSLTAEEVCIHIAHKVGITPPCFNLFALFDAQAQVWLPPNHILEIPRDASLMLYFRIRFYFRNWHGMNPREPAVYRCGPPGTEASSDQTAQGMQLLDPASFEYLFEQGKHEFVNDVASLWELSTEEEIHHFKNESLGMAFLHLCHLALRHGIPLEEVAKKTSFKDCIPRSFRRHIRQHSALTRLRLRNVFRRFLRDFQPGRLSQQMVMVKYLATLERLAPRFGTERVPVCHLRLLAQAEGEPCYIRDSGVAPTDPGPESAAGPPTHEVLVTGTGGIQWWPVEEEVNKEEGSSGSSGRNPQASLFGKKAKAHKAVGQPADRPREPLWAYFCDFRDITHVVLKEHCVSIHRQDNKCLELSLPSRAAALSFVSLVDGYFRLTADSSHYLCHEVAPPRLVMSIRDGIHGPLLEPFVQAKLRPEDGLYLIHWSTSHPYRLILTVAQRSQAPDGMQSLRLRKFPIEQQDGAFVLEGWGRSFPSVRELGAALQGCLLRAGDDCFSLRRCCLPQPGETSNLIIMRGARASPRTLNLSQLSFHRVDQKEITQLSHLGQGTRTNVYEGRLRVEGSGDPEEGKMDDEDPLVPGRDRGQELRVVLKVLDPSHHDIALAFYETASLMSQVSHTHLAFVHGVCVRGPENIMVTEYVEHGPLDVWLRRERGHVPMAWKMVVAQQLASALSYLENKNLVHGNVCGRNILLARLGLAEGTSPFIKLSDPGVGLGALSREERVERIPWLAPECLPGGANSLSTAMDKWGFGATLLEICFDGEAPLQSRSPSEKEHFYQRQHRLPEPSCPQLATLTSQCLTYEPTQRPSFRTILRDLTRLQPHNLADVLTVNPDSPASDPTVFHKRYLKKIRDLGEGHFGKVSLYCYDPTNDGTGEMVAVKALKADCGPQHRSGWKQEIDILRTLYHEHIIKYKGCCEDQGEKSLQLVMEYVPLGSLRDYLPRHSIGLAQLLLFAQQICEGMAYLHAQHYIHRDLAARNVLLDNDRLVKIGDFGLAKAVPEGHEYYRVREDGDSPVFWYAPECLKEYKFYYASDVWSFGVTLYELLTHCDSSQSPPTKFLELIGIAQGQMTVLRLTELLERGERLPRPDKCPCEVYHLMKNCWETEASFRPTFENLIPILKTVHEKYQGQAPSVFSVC
T2 sequence (O60674 whole entry): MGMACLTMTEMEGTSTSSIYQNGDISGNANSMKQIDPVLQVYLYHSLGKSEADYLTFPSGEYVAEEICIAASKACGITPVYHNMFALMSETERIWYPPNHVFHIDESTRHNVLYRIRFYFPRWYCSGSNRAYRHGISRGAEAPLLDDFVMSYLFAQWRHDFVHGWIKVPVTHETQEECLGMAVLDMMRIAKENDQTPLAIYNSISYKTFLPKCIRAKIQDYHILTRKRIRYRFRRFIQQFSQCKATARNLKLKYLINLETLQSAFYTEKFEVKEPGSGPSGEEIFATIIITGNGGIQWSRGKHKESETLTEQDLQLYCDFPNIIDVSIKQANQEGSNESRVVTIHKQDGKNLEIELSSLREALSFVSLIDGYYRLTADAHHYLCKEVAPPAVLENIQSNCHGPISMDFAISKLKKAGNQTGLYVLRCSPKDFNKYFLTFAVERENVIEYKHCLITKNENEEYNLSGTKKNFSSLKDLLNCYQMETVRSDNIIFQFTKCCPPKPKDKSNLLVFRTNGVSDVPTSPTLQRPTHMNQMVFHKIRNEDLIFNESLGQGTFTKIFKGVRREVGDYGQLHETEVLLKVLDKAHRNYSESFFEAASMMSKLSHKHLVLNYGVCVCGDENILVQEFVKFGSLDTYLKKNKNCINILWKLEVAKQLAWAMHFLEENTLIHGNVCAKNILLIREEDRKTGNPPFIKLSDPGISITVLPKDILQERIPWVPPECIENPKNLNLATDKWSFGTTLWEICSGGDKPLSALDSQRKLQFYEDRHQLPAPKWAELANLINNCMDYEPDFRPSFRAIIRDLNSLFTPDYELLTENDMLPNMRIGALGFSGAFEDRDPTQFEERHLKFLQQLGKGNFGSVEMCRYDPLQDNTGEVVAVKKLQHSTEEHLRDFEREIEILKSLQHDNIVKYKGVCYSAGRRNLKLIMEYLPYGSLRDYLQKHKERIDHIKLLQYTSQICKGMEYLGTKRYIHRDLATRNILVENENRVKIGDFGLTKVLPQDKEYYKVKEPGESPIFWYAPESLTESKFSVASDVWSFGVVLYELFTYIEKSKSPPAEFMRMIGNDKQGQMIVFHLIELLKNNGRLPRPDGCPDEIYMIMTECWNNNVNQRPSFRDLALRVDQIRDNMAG
T4 sequence (P50750 whole entry): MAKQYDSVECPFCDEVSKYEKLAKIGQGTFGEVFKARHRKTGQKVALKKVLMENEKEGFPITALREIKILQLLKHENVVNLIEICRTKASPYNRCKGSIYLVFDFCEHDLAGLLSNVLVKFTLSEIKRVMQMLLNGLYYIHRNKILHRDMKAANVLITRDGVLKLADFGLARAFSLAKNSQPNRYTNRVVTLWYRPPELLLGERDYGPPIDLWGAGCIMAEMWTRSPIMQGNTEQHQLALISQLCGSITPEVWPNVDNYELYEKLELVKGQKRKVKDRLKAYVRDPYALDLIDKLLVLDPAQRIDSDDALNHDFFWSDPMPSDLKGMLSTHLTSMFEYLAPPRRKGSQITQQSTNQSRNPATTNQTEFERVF
Chain of Substance-P receptor (Homo sapiens) (P25103 whole entry): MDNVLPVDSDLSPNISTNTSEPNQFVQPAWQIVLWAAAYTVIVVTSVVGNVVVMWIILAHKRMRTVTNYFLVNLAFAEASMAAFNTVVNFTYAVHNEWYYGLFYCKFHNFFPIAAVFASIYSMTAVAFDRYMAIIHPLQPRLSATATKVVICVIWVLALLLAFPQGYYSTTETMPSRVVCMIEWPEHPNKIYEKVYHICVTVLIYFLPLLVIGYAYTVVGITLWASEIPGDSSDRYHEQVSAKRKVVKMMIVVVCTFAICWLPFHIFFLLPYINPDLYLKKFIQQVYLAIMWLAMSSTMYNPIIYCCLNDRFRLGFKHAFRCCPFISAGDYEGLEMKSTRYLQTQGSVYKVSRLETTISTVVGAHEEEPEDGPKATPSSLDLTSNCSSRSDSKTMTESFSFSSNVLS

Q: Which Ratio [1] does the source give for `Cc1cc(Nc2nccc3nc(-c4c(Cl)cc(C#N)cc4Cl)[nH]c23)ncn1` here?
A: 13

Q: And the Papp A→B [2]?
A: 12.7 ×10⁻⁶ cm/s

Q: What about the clearance [3] of the same molecule?
A: 5.1 mL/min/kg

Q: What about the Ki [4] of the same molecule?
A: 0.7 nM

Q: What about the Activity [5] of the same molecule?
A: 78%

Q: And the Activity [6]?
A: 100%

Q: What about the “Cp(f)” value [7] of the same molecule?
A: 860 nM

Q: And the Activity [8]?
A: 21%

Q: And the Ki [9]?
A: 22 nM

Q: And the Ki [10]?
A: 89 nM

Q: What about the fraction unbound [11] of the same molecule?
A: 0.028

Q: What about the inhibition in vivo at 30 mg/kg [12] of the same molecule?
A: 30%

Q: What about the EC50 [13] of the same molecule?
A: 1400 nM

Q: What about the Activity [14] of the same molecule?
A: 74%

Q: And the EC50 [15]?
A: 66 nM

Q: What about the “Cp(f)” value [16] of the same molecule?
A: 2600 nM

Q: And the Activity [17]?
A: 54%

Q: And the Activity [18]?
A: 20%

Q: And the fraction unbound [19]?
A: 0.039

Q: What about the Ratio [20] of the same molecule?
A: 23

Q: What about the clearance [21] of the same molecule?
A: 3.6 mL/min/kg

Q: And the “Cp(f)” value [22]?
A: 1500 nM

Q: What about the Activity [23] of the same molecule?
A: 55%

Q: What about the inhibition [24] of the same molecule?
A: > 50%

Q: And the Ratio [25]?
A: 1.1

Q: What about the fraction unbound [26] of the same molecule?
A: 0.034

Q: And the Ki [27]?
A: 108 nM

Q: And the inhibition in vivo at 100 mg/kg [28]?
A: 87%

Q: What about the inhibition [29] of the same molecule?
A: Dose-dependent effect

Q: What about the Activity [30] of the same molecule?
A: 82%

Q: What about the Ratio [31] of the same molecule?
A: 0.61

Q: What about the efflux ratio [32] of the same molecule?
A: 1.1

Q: And the inhibition in vivo at 70 mg/kg [33]?
A: 72%

Q: What about the Ratio EC50 [34] of the same molecule?
A: 21

Q: And the Ratio [35]?
A: 39

Q: What about the Activity [36] of the same molecule?
A: 99%

Q: What about the inhibition [37] of the same molecule?
A: 67%

Q: And the Ratio [38]?
A: 1.9

Q: What about the inhibition [39] of the same molecule?
A: Dose-dependent effect

Q: What about the inhibition [40] of the same molecule?
A: > 50%
